Results as given in PubChem BioAssay (NCI).
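Where inhibition never reached the appropriate level, the endpoint shown equals the highest concentration tested. Otherwise, values were interpolated linearly from a five-concentration, 48-hour dose response in 96-well plates. Definition used: TGI = concentration required for complete inhibition of growth.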

Key:
Assay in all cases: NCI anticancer screen, dose series, 48 h
[1] = test system: SN12C renal
[2] = test system: IGROV1 ovarian
[3] = test system: M14 melanoma
[4] = test system: COLO 205 colon
[5] = test system: KM12 colon
[6] = test system: EKVX NSCLC
[7] = test system: ACHN renal
[8] = test system: SK-OV-3 ovarian
[9] = test system: RPMI-8226 leukemia
[10] = test system: BT-549 breast
[11] = test system: SW-620 colon
[12] = test system: DU-145 prostate
[13] = test system: OVCAR-8 ovarian
[14] = test system: SF-268 CNS
[15] = test system: HCC-2998 colon
[16] = test system: HOP-92 NSCLC
[17] = test system: HL-60(TB) leukemia
[18] = test system: RXF 393 renal
[19] = test system: TK-10 renal

| Structure (SMILES) | TGI [1] [µM] | TGI [2] [µM] | TGI [3] [µM] | TGI [4] [µM] | TGI [5] [µM] | TGI [6] [µM] | TGI [7] [µM] | TGI [8] [µM] | TGI [9] [µM] | TGI [10] [µM] | TGI [11] [µM] | TGI [12] [µM] | TGI [13] [µM] | TGI [14] [µM] | TGI [15] [µM] | TGI [16] [µM] | TGI [17] [µM] | TGI [18] [µM] | TGI [19] [µM] |
| --- | --- | --- | --- | --- | --- | --- | --- | --- | --- | --- | --- | --- | --- | --- | --- | --- | --- | --- | --- |
| O=C(Nn1c(-c2ccccc2)nc2ccccc2c1=O)c1ccc(O)cc1 | > 100 | > 100 | > 100 | > 100 | > 100 | > 100 | > 100 | > 100 | > 100 | > 100 | > 100 | > 100 | > 100 | > 100 | > 100 | > 100 | > 100 | > 100 | > 100 |
| O=C1C(Cl)C(c2cccc(Br)c2)N1c1c(O)c(Cl)cc(Br)c1Cl (centres undefined) | 28.3 | 10.7 | 27.1 | 20.8 | 39.4 | 39 | 37.6 | 55.8 | 37.9 | > 100 | 41.4 | 32.9 | > 100 | 44.3 | 23.2 | 29 | 53.5 | 24.3 | 51.4 |
| Cc1cn(C2CC(N=[N+]=[N-])C(CO)O2)c(=O)n(CCCCO)c1=O (centres undefined) | > 100 | > 100 | > 100 | > 100 | > 100 | > 100 | > 100 | > 100 | > 100 | > 100 | > 100 | > 100 | > 100 | > 100 | > 100 | > 100 | > 100 | > 100 | > 100 |
| COc1ccc2[nH]cc(CN3CCC(CO)(c4ccccc4)CC3)c2c1 | > 100 | > 100 | 32.3 | 40.3 | 35.4 | 24 | 47.8 | > 100 | 66 | > 100 | 47.8 | > 100 | > 100 | 34.8 | 46.2 | – | 48.5 | > 100 | > 100 |
| CCN(CC)CCOCC1CCCN2CCCCC12 (centres undefined) | > 100 | – | > 100 | > 100 | > 100 | > 100 | > 100 | > 100 | > 100 | > 100 | > 100 | > 100 | > 100 | > 100 | > 100 | > 100 | > 100 | > 100 | > 100 |
| CC1=C(c2ccc(C)cc2)NC(=S)C(C)C(c2ccc(C)cc2)=N1 (centres undefined) | > 100 | > 100 | – | > 100 | > 100 | > 100 | > 100 | > 100 | > 100 | > 100 | > 100 | > 100 | > 100 | > 100 | > 100 | – | > 100 | 70.9 | > 100 |
| O=C(Oc1ccc(OC(Oc2ccccc2)c2ccccc2)cc1)c1ccccc1 (centres undefined) | > 31.6 | 23.4 | > 31.6 | > 31.6 | > 31.6 | > 31.6 | > 31.6 | > 31.6 | 24.1 | > 31.6 | > 31.6 | > 31.6 | > 31.6 | 23 | 22 | – | > 31.6 | > 100 | > 31.6 |
| Cc1nc2ccc(S(=O)(=O)Nc3ccccc3Cl)cc2c(=O)n1NC(=O)CNc1ccccc1Cl | > 100 | > 100 | > 100 | > 100 | > 100 | > 100 | > 100 | > 100 | > 100 | > 100 | > 100 | > 100 | > 100 | > 100 | > 100 | > 100 | > 100 | – | > 100 |
| NS(=O)(=O)c1ccc(N=Nc2nc3[nH]cnc(=S)c3[nH]2)cc1 | > 40.1 | > 100 | > 32.6 | 7.09 | > 100 | > 100 | > 100 | – | 6.53 | > 37.9 | > 100 | 41.1 | > 100 | > 100 | 2.83 | > 100 | 16.7 | > 22.1 | 19.3 |
| ClCCCC1COc2ccccc2O1 (centres undefined) | > 100 | > 100 | > 100 | > 100 | – | > 100 | > 100 | > 100 | – | > 100 | > 100 | > 100 | > 100 | > 100 | > 100 | > 100 | > 100 | > 100 | > 100 |
| N#CC1C(=O)NC2=C(CCOc3c2ccc2ccccc32)C1c1ccc(F)cc1 (centres undefined) | 27.3 | 37.9 | 68 | > 100 | > 100 | > 100 | 26.1 | 55 | – | > 100 | > 100 | > 100 | > 100 | 88.8 | 59.9 | 28.5 | > 100 | 36 | 43.2 |
| COc1ccc(N2C(=O)C3c4[nH]c5cc(Cl)ccc5c4C4CCC(C(C)(C)C)CC4C3C2=O)cc1 (centres undefined) | > 100 | > 100 | > 100 | > 100 | > 100 | > 100 | > 100 | > 100 | > 100 | > 100 | > 100 | > 100 | > 100 | > 100 | > 100 | – | 69.4 | > 100 | > 100 |
| CCN(CC)C(=O)N[C@@H](Cc1ccccc1)C(=O)NC | > 100 | > 100 | > 100 | > 100 | > 100 | > 100 | > 100 | > 100 | > 100 | > 100 | > 100 | > 100 | > 100 | > 100 | > 100 | – | > 100 | > 100 | – |
